Measurements reported in patent publication US4402970A, “1,7-Dihydro-pyrrolo[3,4-e][1,4]diazepin-2(1H)-one derivatives” (Gruppo Lepetit S.p.A., priority 1981, dated 1983).
Read-outs that look alike come from different tables or passages of the source.

Key:
rats = test: potentiation of hexobarbital-induced sleeping time in rats (inducing activity); format: in vivo; details: for potentiation of hexobarbital-induced "sleeping time": same conditions, higher doses than 1 mg/kg p.o.
Protocol: (§1) This is considered as an indication of the absence of inducing activity. These favorable pharmacological properties of the compounds of the present invention are accompanied by a low toxicity, lower than that of the prior-art compounds. As an example, while the acute oral toxicity of the prior-art 3,7-dihydro-6,7-dimethyl-5-phenylpyrrolo[3,4-e][1,4]diazepin-2(1H)-one in mice is about 500 mg/kg, that of the compound of example 5 of the present invention is comprised between 600 and 700 mg/kg and that of the compound of example 11 is higher than 20,000 mg/kg.

[1] = acute oral toxicity in mice; details: mouse, in vivo
Protocol: as §1

benzodiazepine receptors [2] = test: benzodiazepine receptors test in vitro (displacement of 3H-Diazepam from rat brain receptors); format: binding
Protocol: (§2) The anti-anxiety activity of the compounds of the present invention was first shown by submitting the compounds to the "benzodiazepine receptors" test both in vitro and in vivo.
(§3) The in vitro experiments were carried out by following the method described by H. Moler and T. Okada in Life Sciences Vol. 20, 2101-2110 (1977) while those in vivo were carried out according to the procedures illustrated by S. Lippa et al. in Pharmacol. Biochem. & Behaviour, Vol. 9, pp. 853-856 (1978).

benzodiazepine receptors [3] = test: benzodiazepine receptors test in vivo (displacement of 3H-Diazepam from rat brain receptors)
Protocol: as §2, §3

[4] = tested on: mice (pentylenetetrazole-induced death); test: antipentylenetetrazole bioassay in mice (anticonvulsant activity); format: in vivo; details: oral; for ED50: Mus musculus, 2 h
Protocol: To evaluate the anticonvulsant activity the compounds of the present invention have been submitted to the antipentylenetetrazole bioassay in mice. The experiments have been carried out by following essentially the methodology described by Berger in J. Pharm. Exptl. Ther. 104, 468, (1952). More particularly, a fatal dose of pentylenetetrazole (140 mg/kg s.c.) was administered to groups of ten mice each, treated, 30 minutes before the administration of the convulsant agent, with a selected dose of the potential anticonvulsant compound. […] Since the animals of the control group died within 30 minutes, the effectiveness of the compounds tested, at each dose tested, was expressed as the number of animals of the group which were still alive two hours after the administration of pentylenetetrazole, out of the total number of animals of the group (10).
By testing each compound at different doses, the corresponding ED50, i.e. the dose at which 50% of the treated animals are protected, was calculated.
The same test was carried out also with 3,7-dihydro-6,7-dimethyl-5-phenyl-pyrrol[3,4-e][1,4]diazepin-2 (1H)-one (IX) [drawing 13]

monkeys = test: taming effect test on naturally vicious and aggressive monkeys; format: in vivo; details: oral dose of 1 mg/kg
Description: Another behavioural test which confirmed the anti-anxiety properties of the compounds of the present invention was the so-called "taming effect" test carried out on naturally vicious and aggressive monkeys.
The "taming effect" on monkeys is one of the most meaningful and reliable parameters with which the anti-anxiety properties of a compound can be investigated. […] A true "taming effect", as an indication of the anti-anxiety properties of a compound not ascribable to CNS-depression, is reached when the animals become docile and friendly so as to accept food from the observer's hand.

[5] = 30 minutes before pentylenetetrazole 140 mg/kg s.c., survival at two hours, read-out: ED50 (dose at which 50% of the treated animals are protected)

Row | Compound | potentiation of hexobarbital-induced "sleeping time" (rats) | LD50 [1] [mg/kg] | Ki (benzodiazepine receptors [2]) [nM] | "in vivo" % inhibition at 1 mg/kg/os (benzodiazepine receptors [3]) [%] | ED50 [4, 5] [mg/kg] | treated animals displaying a true "taming effect" (monkeys) | dose from which hexobarbital-induced "sleeping time" is potentiated (rats; p.o.) [mg/kg p.o.] | ED50 ([4]; prior-art compound, calculated in the same way, read-out: ED50) [mg/kg] | anticonvulsant activity relative to the compounds of the present invention ([4]; comparison of ED50)
1 | Cc1c2c(cn1C)NC(=O)C(O)N=C2c1ccccc1 (stereo not shown) [Example 5, 1,7-Dihydro-3-hydroxy-6,7-dimethyl-5-phenyl-pyrrolo[3,4-e][1,4]diazepin-2(1H)-one] | did not show this potentiating effect even at higher doses | 600 to 700 | 45.9 | -45 | – | – | – | – | –
2 | CC(=O)OC1N=C(c2ccccc2Cl)c2c(cn(C)c2C)NC1=O (stereo not shown) [Example 9, 5-(2-chlorophenyl)-3-acetoxy-1,7-dihydro-6,7-dimethylpyrrolo[3,4-e][1,4]diazepin-2-(1H)-one] | – | – | – | – | 7.5 | – | – | – | –
3 | Cc1c2c(cn1C)NC(=O)C(O)N=C2c1ccccc1Cl (stereo not shown) [Example 10] | – | – | – | – | 7.5 | at least 50% | – | – | –
4 | Cc1c2c(cn1C)N(C)C(=O)C(O)N=C2c1ccccc1Cl (stereo not shown) [Example 11, 5-(2-Chlorophenyl)-1,7-dihydro-3-hydroxy-1,6,7-trimethylpyrrolo[3,4-e][1,4]diazepin-2(1H)-one] | did not show this potentiating effect even at higher doses | > 20000 | 2.82 | -54 | 5 | at least 50% | – | – | –
5 | Cc1c2c(cn1C)NC(=O)CN=C2c1ccccc1 [IX, 3,7-dihydro-6,7-dimethyl-5-phenyl-pyrrol[3,4-e][1,4]diazepin-2 (1H)-one, reference compound] | – | ~500 | 97 | -33 | – | – | 1 | 15 | at least twice less active than the compounds of the present invention
